Patent US12653794B2, “Dextromethorphan transdermal delivery device” (SHINKEI THERAPEUTICS, INC., priority 2017, dated 2026)

Columns and labels:
[1] = Transdermal flux test, Franz Diffusion Cell method; assay type: in vitro ADME, human
Description: Transdermal flux of Dextromethorphan from the patch was tested using human cadaver epidermis by Franz Diffusion Cell method.
Patch formulations A, B, and C prepared in Example 1 were used for a skin permeation study using the following protocol: • Franz cell assembly—Logan Instruments (6-cell unit) • Each cell has 12 mL volume, 1.5 cm diameter orifice • Receptor medium is a phosphate buffer solution (PBS) pH 7.4 • Cell temperature is maintained at 37° C. • Sampling method: take 1.5 mL for HPLC assay, empty cell, replace with fresh medium • Sampling time points: 4, 8, 12, 24 and 48 hours • Cadaver skin is used and is obtained from New York Fire Fighters Skin Bank. Skin No. MM07116, While, person, skin site: left posterior leg. • Assay method for media: HPLC based.
Formulations D0-D2 were also tested for their in vitro flux characteristics following the same protocol as described in Example 2.

[2] = human, in vivo; cited from earlier work
[3] = Transdermal delivery rate without enhancer
Description: The unpredictability of transdermal administration is notorious. […] Structurally and by calculated Log P, these compounds are very similar, such that this difference could not be anticipated. See, U.S. Provisional Appl. No. 62/568,028, filed Oct. 4, 2017, the content of which is incorporated by reference in its entirety.

CCCCCCCCCCCCCC(=O)OC(C)C [IPM, isopropyl myristate]
effect on flux of dextromethorphan [1]: significant enhancement of flux was observed
effect on skin permeation of DXM [1]: significantly enhance the skin permeation of DXM

COc1ccc2c(c1)[C@]13CCCC[C@@H]1[C@H](C2)N(C)CC3 [dextromethorphan]
adverse reactions reported with the individual component [2]: drowsiness, dizziness, nervousness or restlessness, nausea, vomiting, and stomach pain

C[C@]12CC[C@H]3[C@@H](CCC4=CC(=O)CC[C@@]43C)[C@@H]1CC[C@@H]2O [testosterone]
transdermal delivery rate relative to beta estradiol [3]: three orders of magnitude higher
